Measurements published in US20230338463A1, “ICD PEPTIDE AND USE THEREOF FOR HAVING CYTOTOXIC ACTIVITY ON CANCER CELLS” (NATIONAL TSING HUA UNIVERSITY, priority 2022, published 2023).
Non-standard residues stand in square brackets, D forms with d. Residues, ends and D or L forms follow the SMILES beside them. 2Nal = N[C@@H](Cc1ccc2ccccc2c1)C(=O)O

Key:
[1] = tested on: PC 9 cells; assay: Extracellular HMGB1 Western blot, PC 9; assay type: cell-based, human
Method: HMGB 1 is a chromatin-binding protein and plays an important role as an indicator in the peptide induced immunogenic cell death. In one embodiment, the PC 9 cells were seeded at the density of 2 × 10^4 cells/well under the culture condition in 6-well plate as mentioned earlier in the cell viability determination and left to adhere for 48 hrs. The cells were treated with 56.22 µM of SEQ ID NO:3, 128.38 µM of SEQ ID NO:4 and 142.9 µM of SEQ ID NO: 5 peptides which is the two-fold IC50 concentration for 1 hour (FIG. 4A), 2 hour (FIG. 4B), 4 hour (FIG. 4C) under the incubation condition of humidified 5% CO2 and 37° C. The ICD peptides used were dissolved thoroughly in the serum-free medium (RPMI 1640) before treating the cells.
After the treatment of ICD peptides, the supernatant and lysate of the cells were collected separately for the further experiment. The supernatant was centrifuged at the speed of 1,500 RCF while the cell lysate was undergoing the centrifugation at 14,000 rpm for 5 minutes under the temperature of 4° C. Then, the pellet collected from the supernatant and supernatant of centrifuged cell lysate were discarded. The harvested pellet of cell lysate was washed twice using 200 µL PBS each time preliminarily the sonication of the pellet using bio-disruptor. The disrupted pellet was centrifuged again for 10 minutes under 14,000 rpm and 4° C.
The concentration of the samples was quantified using the commercially available protein quantification assay such as Bradford assay to make sure the amount of the protein was equally loaded in each of the well for SDS-PAGE gel.
The transfer process from polyacrylamide gel to PVDF membrane was performing for 75 minutes under 30 V and 400 mA as well as semi-dry condition. PBST buffer was used to wash the PVDF membrane three times after the transfer process.
The anti-HMGB1 antibody (Abcam, Cambridge, UK, ab18256) will be the primary antibody and incubated overnight at 4° C. in the dilution ratio of 1: 1000. […]

[2] = tested on: PC 9 cells; assay: Extracellular cytochrome c ELISA, PC 9; assay type: cell-based, human; details: PC 9, 2-fold IC50, time not stated
Method: The cytochrome c release was a part of mitochondrial damage-associated molecular patterns, therefore the amount of cytochrome c released into supernatant were measured by cytochrome c ELISA assay.
The cells were washed three times using PBS solution to remove all serum components and 1× 10^6 cells/ mL was solubilised in ice-cold 0.5% Triton-X 100-PBS solution at 2-8° C. for 10 minutes. Then, the speed of 16,000 xg was applied to centrifuge the extract for another 10 minutes, and serially dilute the aliquot of supernatant collected with Calibrator Diluent RD5-18 as described in the manufacturer’s protocol.
Quantifying the volume of cytochrome c released and the results were presented in FIGS. 7A-7C via ELISA assay for 0.5, 1, 1.5, and 2 hours. SEQ ID NO:4 group induced a relatively high amount of cytochrome c compared to SEQ ID NO:3 group and SEQ ID NO: 5 group. The cytochrome c release for SEQ ID NO:4 group was double the amount of SEQ ID NO:3 group and SEQ ID NO: 5 group. The trend of cytochrome c release in SEQ ID NO:4 and SEQ ID NO:3 treated PC 9 cells were escalating from 30 minutes to 4 hours, in contrast the SEQ ID NO: 5 group has fluctuating trend. […] The highest amount of cytochrome c detected in the supernatant for SEQ ID NO:3 and SEQ ID NO: 5 were around 3.5 ng/mL and lower than 2 ng/mL for the least.

[3] = tested on: MN-11 cells (fibrosarcoma); assay: MN-11 fibrosarcoma tumor regression, intratumoral injection; assay type: in vivo
Method: Female C57BL/6 wild-type mice (4–5 weeks old) were obtained from the BioLASCO Taiwan Co., Ltd (Taiwan). All mice were housed in a specific pathogen-free and controlled environment. During the experiments, female mice, weighing 18–24 g each, were kept in groups of 4 to 6 animals per cage under climate-controlled conditions, with 12 h light/dark cycles and an ambient temperature. The mice were housed in an enriched individually ventilated cage system with free access to standard rodent chow and water ad libitum. The animals were anesthetized during the experimental procedures with 2.5% isoflurane gas. The animals were monitored daily and large-tumor-bearing mice were euthanized with isoflurane. All the procedures were conducted according to the regulations of Laboratory Animal Care and Use Committee or Group Setup and Management and the law of Animal Protection. All animal experiments were approved by National Tsing Hua University (approval ID: 110016), and the protocol was approved by Institutional Animal Care and Use Committee.
Pre-cultured MN-11 cells were harvested in a DMEM medium and inoculated total of 5×10^5 cells (mixed equal volume of matrigel) into the right flank of the abdomen in C57BL/6 mice with subcutaneous injection (6 mice/group). Palpable tumors (50-75 mm^3) were intratumorally injected (i.t.) with Nal-P-113 (1 mg/50 µl saline per mouse) for 3 consecutive days. Negative control (tumor only) mice received saline only (sterile H2O with 0.9% NaCl). Tumor size was measured every 2 days using a caliper, and the volume of tumors was calculated using the following formula: Tumor size (mm^3) = 0.5× (width^2×length). Animals were terminated when the tumor exceeded 2000 mm^3. The survival rates of tumor-bearing mice were observed and recorded continuously until all animals were dead. Additionally, the following were implemented as humane endpoints: signs of unacceptable pain, infection, severe ulceration, or surgical complications.
To investigate the therapeutic potential of Nal-P-113 in vivo, MN-11 cells were subcutaneously implanted into C57BL/6 mice. After eight days post-implantation, tumor volumes reached 50-75 mm^3. Then all animals were injected intratumorally (i.t.) with 50 µl of PBS (Negative control; n=5) or […] Nal-P-113 (n=11). […] At the end of the experiments (35 days), 10 out of 11 animals were survived in the treatment group. […] Nal-P-113 treatment appeared to be nontoxic since no there were effects on the body weight and intake of the animals at the end of the experiment (FIG. 9D and FIG. 9E).

SMILES: CC(=O)N[C@@H](C)C(=O)N[C@@H](CCCCN)C(=O)N[C@@H](CCCNC(=N)N)C(=O)N[C@@H](Cc1ccc2ccccc2c1)C(=O)N[C@@H](Cc1ccc2ccccc2c1)C(=O)NCC(=O)N[C@@H](Cc1ccc(O)cc1)C(=O)N[C@@H](CCCCN)C(=O)N[C@@H](CCCNC(=N)N)C(=O)N[C@@H](CCCCN)C(=O)N[C@@H](Cc1ccccc1)C(=O)N[C@@H](Cc1ccc2ccccc2c1)C(N)=O [SEQ ID NO:3, Ac-AKR Nal Nal GYKRKFNal-NH2] (Ac-AKR[2Nal][2Nal]GYKRKF[2Nal]-NH2)
- HMGB1 in supernatant ([1]; PC 9, 2 × IC50, 1 hour): nothing is observed
- HMGB1 in supernatant ([1]; PC 9, 2 × IC50, 2 hours): can be detected
- HMGB1 in supernatant ([1]; PC 9, 2 × IC50, 4 hours): obviously be seen
- highest amount of cytochrome c detected in the supernatant [2]: around 3.5 ng/mL
- toxicity (body weight and intake) ([3]; C57BL/6 mice, at the end of the experiment): nontoxic
- animals survived ([3]; end of the experiments (35 days), i.t. Nal-P-113 for 3 consecutive days, n=11): 10 out of 11
- complete regression of the tumor ([3]; treatment group n=11, i.t.): 5 animals
- tumor recurrence ([3]; treatment group n=11, i.t.): 6 animals
